# Like-named read-outs stand apart in the source and are kept apart here.
# Assays:
# [1] = for RFU change (Correlation analysis): probe-specific excitation λ, emission 545 nm; for carbohydrate can be detected and/or differentiated by the LCO: conclusion from change in signal magnitude and/or shift in λmax
# In short: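 Each LCO probe at 3 μM was added to two-fold serial dilutions of carbohydrate in dH2O (10–0.039 mg/ml for β-1,3-glucan, cellulose, chitin; 5–0.019 mg/ml for the others), run in triplicate. Excitation spectra were scanned 300–500 nm with emission at 545 nm. Detection was a reproducible λmax and/or RFU shift versus negative control, with linear regression of RFU against concentration.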
# [2] = In short: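 LCO probes (3 μM) were added to serial two-fold dilutions of carbohydrate suspensions in dH2O, with excitation scanned 300–500 nm and emission at 545 nm. Detection was a reproducible λmax and/or RFU change versus no-carbohydrate control. RFU was regressed linearly against concentration at the λmax or the lowest-background excitation.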
# [3] = remark: listed apart in the source
# In short: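 LCO probes at 3 μM mixed with serial two-fold carbohydrate dilutions in water (10–0.039 or 5–0.019 mg/ml), run in triplicate. Excitation scanned 300–500 nm with emission at 545 nm; detection based on reproducible λmax or RFU shift against the no-carbohydrate control, with linear regression of RFU on concentration.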
# [4] = for RFU change (Correlation analysis): probe-specific excitation λ, emission 545 nm; for carbohydrate can be detected and/or differentiated by the LCO: conclusion from change in signal magnitude and/or shift in λmax; remark: listed apart in the source
# In short: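 LCO probes at 3 μM mixed with serial two-fold dilutions of carbohydrate in dH2O (10–0.039 or 5–0.019 mg/ml, depending on carbohydrate), in triplicate. Excitation scanned 300–500 nm or fixed per probe (λmax or lowest background), emission at 545 nm. Detection taken as reproducible λmax/RFU shift vs no-carbohydrate control; RFU regressed linearly on concentration.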
# [5] = for RFU change (Correlation analysis): probe-specific excitation λ, emission 545 nm; for Gradient Parameters (gradient of regression line) / Linear relationship / Quality of Gradient: linear regression
# In short: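 LCO probes at 3 μM mixed with serial twofold carbohydrate dilutions in dH2O (10–0.039 or 5–0.019 mg/ml, depending on carbohydrate). Excitation scanned 300–500 nm, emission read at 545 nm; detection defined as reproducible shift in λmax and/or RFU relative to negative control, with linear regression of RFU against concentration.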
# [6] = remark: listed apart in the source
# In short: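 3 μM of each LCO probe was added to serial two-fold carbohydrate dilutions in water (10–0.039 or 5–0.019 mg/ml). Excitation spectra were scanned 300–500 nm with emission at 545 nm, in triplicate. Detection was defined as a reproducible shift in λmax and/or RFU versus negative control, with linear regression of RFU against concentration.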
# [7] = Chitin 10-[…], 3 μM probe, spectral analysis, Excitation 300-500, Emission 545
# [8] = cellulose concentration vs RFU, linear regression
# [9] = chitin concentration vs RFU, linear regression
# [10] = β-1,3-glucan concentration vs RFU, linear regression
# [11] = sodium alginate concentration vs RFU, linear regression
# [12] = glucose concentration vs RFU, linear regression
# [13] = Cellulobiose 5-0.019 mg/ml, 3 μM probe, spectral analysis, Excitation 300-500, Emission 545
# [14] = amylose concentration vs RFU, linear regression
# [15] = cellulobiose concentration vs RFU, linear regression
# [16] = Glycogen 5-0.019 mg/ml, 3 μM probe, spectral analysis, Excitation 300-500, Emission 545
# [17] = Chondroitin Sulfate A 5-0.019 mg/ml, 3 μM probe, spectral analysis, Excitation 300-500, Emission 545
# [18] = Chondroitin Sulfate A concentration vs RFU, linear regression
compound,measurement,setting,value
"O=C([O-])C[C@H](NC(=O)Cc1cc(-c2cccs2)sc1-c1ccc(-c2sc(-c3cccs3)cc2CC(=O)N[C@@H](CC(=O)[O-])C(=O)[O-])s1)C(=O)[O-].[Na+].[Na+].[Na+].[Na+] [pHTA-Asp, penta Hydrogen Thiophene Acetic acid Aspartic acid]",RFU change (Correlation analysis),"[1]; Cellulose 10-[…], 3 μM probe",Unclear
same,RFU change (Signal deviation with increasing [Carbohydrate]),"[1]; Cellulose 10-[…], 3 μM probe, spectral analysis, Excitation 300-500, Emission 545",Unclear
same,RFU change (Correlation analysis),"[1]; Chitin 10-[…], 3 μM probe",Increases
same,RFU change (Signal deviation with increasing [Carbohydrate]),[1]; [7],Increases
same,λmax change,[1]; [7],Redshift
same,carbohydrate can be detected and/or differentiated by the LCO,[1]; Chitin,can be detected and/or differentiated
same,Gradient Parameters (gradient of regression line),[1]; [8],12.3 ± 64.4
same,Quality of Gradient,[1]; [8],Horizontal
same,Gradient Parameters (gradient of regression line),[1]; [9],3138 ± 491.2
same,Linear relationship,[1]; [9],Significant
same,Quality of Gradient,[1]; [9],Positive
same,Sensitivity,[1]; to cellulose,No
same,Sensitivity,[1]; to chitin,Yes
same,Sensitivity,"[1]; to β-1,3-glucan",Yes
same,carbohydrate can be detected and/or differentiated by the LCO,"[1]; β-1,3-Glucan",can be detected and/or differentiated
same,RFU change (Correlation analysis),"[1]; β-1,3-glucan 10-[…], 3 μM probe",Decrease
same,RFU change (Signal deviation with increasing [Carbohydrate]),"[1]; β-1,3-glucan 10-[…], 3 μM probe, spectral analysis, Excitation 300-500, Emission 545",Decrease
same,Gradient Parameters (gradient of regression line),[1]; [10],−792.9 ± 97.3
same,Quality of Gradient,[1]; [10],Negative
same,RFU change (Correlation analysis),"[2]; Sodium alginate 5-0.019 mg/ml, 3 μM probe, probe-specific excitation λ, emission 545 nm",Unclear
same,RFU change (Signal deviation with increasing [Carbohydrate]),"[2]; Sodium alginate 5-0.019 mg/ml, 3 μM probe, spectral analysis, Excitation 300-500, Emission 545",Unclear
same,Gradient Parameters (gradient of regression line),[2]; [11],41.4 ± 59.6
same,Quality of Gradient,[2]; [11],Horizontal
same,Sensitivity,[2]; to sodium alginate,No
same,RFU change (Correlation analysis),"[3]; Glucose 5-0.019 mg/ml, 3 μM probe, probe-specific excitation λ, emission 545 nm",Increases
same,RFU change (Signal deviation with increasing [Carbohydrate]),"[3]; Glucose 5-0.019 mg/ml, 3 μM probe, spectral analysis, Excitation 300-500, Emission 545",Increases
same,carbohydrate can be detected and/or differentiated by the LCO,"[3]; Glucose, conclusion from change in signal magnitude and/or shift in λmax",can be detected and/or differentiated
same,Gradient Parameters (gradient of regression line),[3]; [12],625.1 ± 130.2
same,Linear relationship,[3]; [12],Significant
same,Quality of Gradient,[3]; [12],Positive
same,Sensitivity,[3]; to glucose,Yes
same,RFU change (Correlation analysis),"[4]; Amylose 5-0.019 mg/ml, 3 μM probe",Increases
same,RFU change (Signal deviation with increasing [Carbohydrate]),"[4]; Amylose 5-0.019 mg/ml, 3 μM probe, spectral analysis, Excitation 300-500, Emission 545",Increases
same,carbohydrate can be detected and/or differentiated by the LCO,[4]; Amylose,can be detected and/or differentiated
same,RFU change (Correlation analysis),"[4]; Cellulobiose 5-0.019 mg/ml, 3 μM probe",Increases
same,RFU change (Signal deviation with increasing [Carbohydrate]),[4]; [13],Increases
same,λmax change,[4]; [13],No change
same,carbohydrate can be detected and/or differentiated by the LCO,[4]; Cellulobiose,can be detected and/or differentiated
same,Gradient Parameters (gradient of regression line),[4]; [14],−7.6 ± 208.9
same,Quality of Gradient,[4]; [14],Horizontal
same,Linear relationship,[4]; [15],Significant
same,Quality of Gradient,[4]; [15],Positive
same,Sensitivity,[4]; to amylose,Yes
same,Sensitivity,[4]; to cellulobiose,Yes
same,RFU change (Correlation analysis),"[5]; Glycogen 5-0.019 mg/ml, 3 μM probe",Decreases
same,RFU change (Signal deviation with increasing [Carbohydrate]),[5]; [16],Decreases
same,λmax change,[5]; [16],Redshift
same,carbohydrate can be detected and/or differentiated by the LCO,"[5]; Glycogen, conclusion from change in signal magnitude and/or shift in λmax",can be detected and/or differentiated
same,RFU change (Correlation analysis),"[5]; Heparin 5-0.019 mg/ml, 3 μM probe",Unclear
same,RFU change (Signal deviation with increasing [Carbohydrate]),"[5]; Heparin 5-0.019 mg/ml, 3 μM probe, spectral analysis, Excitation 300-500, Emission 545",Unclear
same,Gradient Parameters (gradient of regression line),[5]; glycogen concentration vs RFU,−665.8 ± 88.9
same,Linear relationship,[5]; glycogen concentration vs RFU,Significant
same,Quality of Gradient,[5]; glycogen concentration vs RFU,Negative
same,Gradient Parameters (gradient of regression line),[5]; heparin concentration vs RFU,−3.2 ± 49.3
same,Linear relationship,[5]; heparin concentration vs RFU,Not Significant
same,Quality of Gradient,[5]; heparin concentration vs RFU,Horizontal
same,Sensitivity,[5]; to glycogen,Yes
same,Sensitivity,[5]; to heparin,No
same,RFU change (Correlation analysis),"[6]; Chondroitin Sulfate A 5-0.019 mg/ml, 3 μM probe, probe-specific excitation λ, emission 545 nm",Unclear
same,RFU change (Signal deviation with increasing [Carbohydrate]),[6]; [17],Unclear
same,λmax change,[6]; [17],No change
same,Gradient Parameters (gradient of regression line),[6]; [18],−67.88 ± 90.0
same,Quality of Gradient,[6]; [18],Horizontal
same,Sensitivity,[6]; to Chondroitin Sulfate A,No

# From patent publication US9958439B2, “Carbohydrate detection” (RICHTER LIFE SCIENCE DEVELOPMENT AB, priority 2012, dated 2018)
